Source: US6358885B1, “Substituted phenylheterocyclic herbicides” (Mississippi State University, priority 1992, dated 2002)

Tested on: speedwell
Assay: Test C preemergence/postemergence greenhouse plant response rating 0 to 100
Assay type: in vivo, Veronica persica
Details: for Plant response rating Speedwell: 0 to 100 scale
Source text: The compounds evaluated in this test were formulated in a non-phytoxic solvent and applied to the soil surface before plant seedlings emerged (preemergence application), to water that covered the soil surface (flood application), and to plants that were in the one-to-four leaf stage (postemergence application). A sandy loam soil was used for the preemergence and postemergence tests, while a silt loam soil was used in the flood test. Water depth was approximately 2.5 cm for the flood test and was maintained at this level for the duration of the test. Plant species in the preemergence and postemergence tests consisted of barley (Hordeum vulgare), bedstraw (Galium aparine), blackgrass (Alopecurus myosuroides), chickweed (Stellaria media), corn (Zea mays), cotton (Gossypium hirsutum), crabgrass (Digitaria sanguinalis), downy brome (Bromus tectorum), giant foxtail (Setaria faberii), lambsquarters (Chenopodium album), morningglory (Ipomoea hederacea), pigweed ([…]), rape (Brassica napus), ryegrass (Lolium multiflorum), sorghum (Sorghum bicolor), soybean (Glycine max), speedwell (Veronica persica), sugar beet (Beta vulgaris), velvetleaf (Abutilon theophrasti), wheat (Triticum aestivum), wild buckwheat (Polygonum convolvulus), and wild oat (Avena fatua). All plant species were planted one day before application of the compound for the preemergence portion-of this test. Plantings of these species were adjusted to produce plants of appropriate size for the post-emergence portion of the test. […] All plant species were grown using normal greenhouse practices. Visual evaluations of injury expressed on treated plants, when compared to untreated controls, were recorded approximately fourteen to twenty one days after application of the test compound. […] A dash (-) response means no test result.

Row | Structure (SMILES) | Plant response rating Speedwell (POSTEMERGENCE, 62 g/ha) | Plant response rating Speedwell (POSTEMERGENCE, 125 g/ha) | Plant response rating (0 to 100), Speedwell (Rate 16 g/ha, POSTEMERGENCE) | Plant response rating (0 to 100), Speedwell (Rate 31 g/ha, POSTEMERGENCE) | Plant response rating (0 to 100), Speedwell (POSTEMERGENCE, Rate 4 g/ha) | Plant response rating (0 to 100), Speedwell (POSTEMERGENCE, Rate 1 g/ha) | other results
1 | CC(C)Oc1cc(-c2nn3c(c2Br)CCCC3)c(F)cc1Cl [Compound 38] |  |  |  |  |  |  | Plant response rating (0 to 100), Speedwell (PREEMERGENCE, Rate 1 g/ha): 0; Plant response rating (0 to 100), Speedwell (PREEMERGENCE, Rate 4 g/ha): 0; Plant response rating (0 to 100), Speedwell (Rate 16 g/ha, PREEMERGENCE): 0
2 | CC(C)OC(=O)COc1cc(-c2nn3c(c2Cl)CCCC3)c(F)cc1Cl [Compound 39] | 95 | 100 | 90 | 90 |  |  | 
3 | C=C(Cl)COc1cc(-c2nn3c(c2Cl)CCCC3)c(F)cc1Cl [Compound 40] | 100 | 100 | 90 | 95 |  |  | 
4 | C=CCN1C(=O)COc2cc(F)c(-c3nn4c(c3Br)CCCC4)cc21 [Compound 41] | 100 | 100 | 100 | 100 |  |  | 
5 | CCOC(=O)COc1cc(-c2nn3c(c2Cl)CCCC3)c(F)cc1Cl [Compound 42] | 100 | 100 | 95 | 100 |  |  | 
6 | Fc1cc(Cl)c(OCCCl)cc1-c1nn2c(c1Cl)CCCC2 [Compound 49] | 100 |  | 100 |  | 85 |  | Plant response rating Speedwell (POSTEMERGENCE, 250 g/ha): 100
7 | C#CC(C)N1C(=O)COc2cc(F)c(-c3nn4c(c3Cl)CCCC4)cc21 (stereo not drawn) [Compound 50] | 100 |  | 100 |  | 70 | 0 | 
8 | Fc1cc(Cl)ccc1-c1nn2c(c1Br)CCCC2 [Compound 52] |  | 100 |  | 100 |  |  | Plant response rating Speedwell (PREEMERGENCE, 125 g/ha): 100; Plant response rating (0 to 100), Speedwell (PREEMERGENCE, Rate 2 g/ha): 0; Plant response rating (0 to 100), Speedwell (Rate 8 g/ha, POSTEMERGENCE): 30; Plant response rating (0 to 100), Speedwell (Rate 8 g/ha, PREEMERGENCE): 0; Plant response rating (0 to 100), Speedwell (Rate 31 g/ha, PREEMERGENCE): 20
9 | CCN1C(=O)COc2cc(F)c(-c3nn4c(c3Cl)CCCC4)cc21 [Compound 54] | 100 |  | 100 |  | 100 | 100 | Plant response rating (0 to 100), Speedwell (PREEMERGENCE, Rate 1 g/ha): 50; Plant response rating (0 to 100), Speedwell (PREEMERGENCE, Rate 4 g/ha): 100; Plant response rating (0 to 100), Speedwell (Rate 16 g/ha, PREEMERGENCE): 100
10 | COCN1C(=O)COc2cc(F)c(-c3nn4c(c3Cl)CCCC4)cc21 [Compound 55] | 100 |  | 100 |  | 100 | 60 | 
11 | C#CCN1C(=O)COc2cc(F)c(-c3nn4c(c3Br)CCCC4)cc21 [Compound 56] | 100 |  | 100 |  | 100 | 100 | 
12 | COCOc1cc(-c2nn3c(c2Cl)CCCC3)c(F)cc1Cl [Compound 58] |  | 100 |  | 100 |  |  | Plant response rating (0 to 100), Speedwell (POSTEMERGENCE, Rate 2 g/ha): 40; Plant response rating Speedwell (PREEMERGENCE, 125 g/ha): 100; Plant response rating (0 to 100), Speedwell (PREEMERGENCE, Rate 2 g/ha): 0; Plant response rating (0 to 100), Speedwell (Rate 8 g/ha, POSTEMERGENCE): 70; Plant response rating (0 to 100), Speedwell (Rate 8 g/ha, PREEMERGENCE): 100; Plant response rating (0 to 100), Speedwell (Rate 31 g/ha, PREEMERGENCE): 100
13 | CCOCOc1cc(-c2nn3c(c2Cl)CCCC3)c(F)cc1Cl [Compound 59] |  | 100 |  | 100 |  |  | Plant response rating (0 to 100), Speedwell (POSTEMERGENCE, Rate 2 g/ha): 100; Plant response rating Speedwell (PREEMERGENCE, 125 g/ha): 100; Plant response rating (0 to 100), Speedwell (Rate 8 g/ha, POSTEMERGENCE): 100; Plant response rating (0 to 100), Speedwell (Rate 8 g/ha, PREEMERGENCE): 50; Plant response rating (0 to 100), Speedwell (Rate 31 g/ha, PREEMERGENCE): 100
14 | CCCN1C(=O)COc2cc(F)c(-c3nn4c(c3Br)CCCC4)cc21 [Compound 63] |  |  |  |  |  |  | Plant response rating Speedwell (PREEMERGENCE, 250 g/ha): 100; Plant response rating (0 to 100), Speedwell (PREEMERGENCE, Rate 4 g/ha): 0; Plant response rating (0 to 100), Speedwell (Rate 16 g/ha, PREEMERGENCE): 90
15 | C#CC(C)Oc1cc(-c2nn3c(c2Br)CCCC3)c(F)cc1Cl (stereo not drawn) [Compound 66] | 100 |  | 100 |  | 100 |  | Plant response rating Speedwell (POSTEMERGENCE, 250 g/ha): 100; Plant response rating Speedwell (PREEMERGENCE, 250 g/ha): 100; Plant response rating (0 to 100), Speedwell (PREEMERGENCE, Rate 4 g/ha): 0; Plant response rating (0 to 100), Speedwell (Rate 16 g/ha, PREEMERGENCE): 90
16 | COCN1C(=O)COc2cc(F)c(-c3nn4c(c3Br)CCCC4)cc21 [Compound 67] | 100 |  | 100 |  | 100 | 90 | 
